According to US20260085071A1, “NOVEL CRYSTALLINE FORM OF 1-(8-BROMOPYRIDO[2,3- E][1,2,4]TRIAZOLO[4,3-A]PYRAZIN-4-YL)-NMETHYLAZETIDIN- 3-AMINE” (JW PHARMACEUTICAL CORPORATION, priority 2022, published 2026):

Experiments:
[1] = test system: inflammatory cells such as mast cells and eosinophils; details: background statement, U.S. Pat. No. 9,586,959; cited from earlier work
histamine 4 receptor = histamine 4 receptor (Homo sapiens, UniProt Q9H3N8); details: background statement, U.S. Pat. No. 9,586,959; cited from earlier work
Sequence of histamine 4 receptor (Q9H3N8 whole entry): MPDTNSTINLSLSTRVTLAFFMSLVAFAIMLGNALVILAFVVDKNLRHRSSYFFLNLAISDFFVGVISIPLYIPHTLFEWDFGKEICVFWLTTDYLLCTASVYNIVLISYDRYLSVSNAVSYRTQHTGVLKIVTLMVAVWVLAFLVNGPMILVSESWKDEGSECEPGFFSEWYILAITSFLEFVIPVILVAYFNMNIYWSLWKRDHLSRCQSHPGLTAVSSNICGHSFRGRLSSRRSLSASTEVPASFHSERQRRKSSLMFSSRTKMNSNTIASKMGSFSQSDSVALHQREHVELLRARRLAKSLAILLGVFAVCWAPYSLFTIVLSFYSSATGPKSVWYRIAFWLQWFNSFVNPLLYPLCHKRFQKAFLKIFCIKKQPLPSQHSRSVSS

[2] = Stability of polymorphic form during gentle drying; format: physicochemical; details: pure polymorphic forms from crystallization experiments
[3] = Thermodynamic (thermal) stability of crystalline form; format: physicochemical; details: solid crystalline form
Method: TGA experiments were conducted using a TGA550 instrument from TA Instruments. About 1-10 mg of sample was loaded into a ceramic pan for the measurements. The sample temperature was ramped from 25 to 500° C. at 10° C./min. Nitrogen was used as the purge gas at a flow rate of 50 mL/min.
DSC: Heating rate of 10° C./min under a nitrogen atmosphere. About 1-2 mg of sample was loaded into an open aluminum pan for the measurements. Instrument Q20 from TA Instruments.

[4] = Stress testing at high temperature and high humidity; format: physicochemical; details: high temperature (60° C.) and high humidity (75%) for 4 weeks

SMILES | effects against histamine induced infiltration of inflammatory cells [1] | histamine 4 receptor inhibitory effect (histamine 4 receptor) | stability during gentle drying [2] | thermodynamically stable up to [3] | stability during stress testing [4]
CNC1CN(c2nc3ncc(Br)cc3n3cnnc23)C1 [1-(8-bromopyrido[2,3-e][1,2,4]triazolo[4,3-a]pyrazin-4-yl)-N-methylazetidin-3-amine] | suppressive effects | strong | – | – | –
CNC1CN(c2nc3ncc(Br)cc3n3cnnc23)C1 [Form A, 1-(8-bromopyrido[2,3-e][1,2,4]triazolo[4,3-a]pyrazin-4-yl)-N-methylazetidine-3-amine] | – | – | stable | up to 273 °C | stable
